Measured values as given in patent publication US20220135538A1, “P300/CBP HAT INHIBITORS AND METHODS FOR THEIR USE” (Constellation Pharmaceuticals, Inc., priority 2019, published 2022).

Biological target: T1, p300 HAT domain (residues 1287-1666) (Homo sapiens, UniProt Q09472)
T1 construct: The p300 HAT domain (residues 1287-1666) was expressed; His tag (N); made in house; host or cells: Escherichia coli
T1 sequence (Q09472 1287-1666): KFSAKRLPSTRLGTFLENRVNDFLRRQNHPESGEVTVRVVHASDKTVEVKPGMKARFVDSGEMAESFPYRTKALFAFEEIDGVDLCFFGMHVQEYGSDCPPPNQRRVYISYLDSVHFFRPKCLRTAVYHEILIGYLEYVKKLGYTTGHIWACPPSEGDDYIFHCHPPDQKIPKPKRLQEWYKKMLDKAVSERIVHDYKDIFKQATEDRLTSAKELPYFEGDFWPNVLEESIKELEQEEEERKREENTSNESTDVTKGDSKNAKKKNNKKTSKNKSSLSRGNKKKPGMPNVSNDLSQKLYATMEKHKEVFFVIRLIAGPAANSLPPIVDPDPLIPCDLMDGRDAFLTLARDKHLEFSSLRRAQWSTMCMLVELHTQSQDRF
Experiment: P300 HAT SPA assay (scintillation proximity, acetylation of biotinylated H3(1-21) peptide)
Type: biochemical
Conditions: 6 nM p300-HAT domain; average of at least 2 replicate titrations
Experimental: The activity of the compounds described herein as p300/CBP HAT inhibitors may be readily determined using a scintillation proximity assay (SPA) methodology (Udenfriend, S.; Gerber, L.; Nelson, N. Scintillation Proximity Assay: A Sensitive and Continuous Isotopic Method for Monitoring Ligand/Receptor and Antigen/Antibody Interactions. Anal. Biochem. 1987, 161, 494-500).
In a typical experiment the p300 HAT inhibitory activity of the compounds described herein was determined in accordance with the following experimental method.
The p300 HAT domain (residues 1287-1666) was expressed and purified with an N-terminal His tag from Escherichia coli cells. The expressed protein was purified by Ni2+affinity, followed by anion exchange chromatography. Appropriate fractions were pooled and buffer exchanged into 20 mM Hepes pH 7.5, 150 mM NaCl, and 1 mM TCEP.
Compounds of interest solubilized in DMSO were stamped in a Greiner black 384-well plate in a 10-point duplicate dose response using an Echo 550 (Labcyte). p300-HAT domain purified in-house (aa 1287-1666) was diluted to 6 nM in reaction buffer (50 mM Tris pH 8.0, 100 mM NaCl, 1 mM DTT, 0.069 mM Brij-35, 0.1 mM EDTA, 0.1 mg/mL BSA), combined with 4.14 μM AcCoA (Sigma-Aldrich) and 0.46 μM ^3H-AcCoA (PerkinElmer), and 12.5 μL added to each well and incubated for 30 min at RT. Reactions were initiated with 12.5 μL 2 μM biotinylated H3(1-21) peptide (New England Peptide) and run for 1 hr at RT, then quenched with 20 μL stop solution (200 mM Tris pH 8.0, 200 mM EDTA, 2M NaCl, 160 μM anacardic acid). 35 μL of the reaction volume was transferred to a 384-well streptavidin FlashPlate (PerkinElmer) using a Bravo liquid handler (Velocity 11) and incubated for 1.5 hr at RT. Plates were aspirated, washed with 95 μL wash buffer (15 mM Tris pH 8.5, 0.069 μM Brij-35), aspirated, sealed, and scintillation counts read on a Topcount (PerkinElmer). Data were analyzed in Genedata to determine inhibitor IC50 values.

IC50	SMILES
> 2000 nM	CC(Oc1ccc(NC(=O)C(NCCc2ccc(C#N)cc2)c2ccccc2)nc1)c1cnn(C)c1 (single isomer, unassigned) [18 Isomer 3]
115 nM	CC(CNC(C(=O)Nc1ccc(OC2CN(C(=O)OC(C)(C)C)C2)cn1)c1ccccc1)c1ccc(C#N)cc1 (single isomer, unassigned) [25 Isomer 2]
965 nM	CC(=O)N1CC(Oc2ccc(NC(=O)C(NCC(C)c3ccc(C#N)cc3)c3cccc(F)c3)nc2)C1 (single isomer, unassigned) [23 Isomer 2]
33.7 nM	CC(CNC(C(=O)Nc1ccc(Oc2cnn(C)c2)cn1)c1ccccc1)c1ccc(C#N)cc1 (single isomer, unassigned) [17 Isomer 1]
> 2000 nM	Cc1cnc(Oc2ccc(NC(=O)C(NCCc3ccc(C#N)cc3)c3ccccc3)nc2)nc1 (single isomer, unassigned) [22 Isomer 1]
> 2000 nM	CC(CNC(C(=O)Nc1ccc(OC2CN(C(=O)C3CC3)C2)cn1)c1ccccc1)c1ccc(C#N)cc1 (single isomer, unassigned) [21 Isomer 2]
> 2000 nM	CC(=O)N1CCC[C@@H](Oc2ccc(NC(=O)C(NCCc3ccc(C#N)cc3)c3ccccc3)nc2)C1 (single isomer, unassigned) [16 Isomer 2]
> 2000 nM	CC(Oc1ccc(NC(=O)C(NCCc2ccc(C#N)cc2)c2ccccc2)nc1)c1cnn(C)c1 (single isomer, unassigned) [18 Isomer 4]
> 2000 nM	CC(CNC(C(=O)Nc1ccc(Oc2cnn(C)c2)cn1)c1ccccc1)c1ccc(C#N)cc1 (single isomer, unassigned) [17 Isomer 4]

Continued, compound first:

SMILES	IC50
CN1CCC(Oc2ccc(NC(=O)C(NCCc3ccc(C#N)cc3)c3ccccc3)nc2)C1=O (single isomer, unassigned) [12 Isomer 3]	> 2000 nM
CN1CC(Oc2ccc(NC(=O)C(NCCc3ccc(Cl)cc3)c3ccccc3)nc2)CCC1=O (single isomer, unassigned) [10 Isomer 3]	45.4 nM
CC(=O)N1CC[C@@H](Oc2ccc(NC(=O)C(NCCc3ccc(C#N)cc3)c3ccccc3)nc2)C1 (single isomer, unassigned) [14 Isomer 2]	> 2000 nM
CC(=O)N1CC(Oc2ccc(NC(=O)C(NC[C@@H](C)c3ccc(C#N)cc3)c3ccccc3)nc2)C1 (single isomer, unassigned) [2 Isomer 2]	> 2000 nM
CN1CC(Oc2ccc(NC(=O)C(NCCc3ccc(Cl)cc3)c3ccccc3)nc2)CN(C)C1=O (single isomer, unassigned) [3 Isomer 1]	> 2000 nM
CN1CC(Oc2ccc(NC(=O)C(NCCc3ccc(Cl)cc3)c3ccccc3)nc2)CCC1=O (single isomer, unassigned) [10 Isomer 4]	> 2000 nM
CN1CCC(Oc2ccc(NC(=O)C(NCCc3ccc(C#N)cc3)c3ccccc3)nc2)C1=O (single isomer, unassigned) [12 Isomer 1]	65 nM
CN1CC(Oc2ccc(NC(=O)C(NCCc3ccc(Cl)cc3)c3ccccc3)nc2)CCC1=O (single isomer, unassigned) [10 Isomer 1]	94.2 nM
CC(=O)N1CCC[C@H](Oc2ccc(NC(=O)C(NCCc3ccc(C#N)cc3)c3ccccc3)nc2)C1 (single isomer, unassigned) [15 Isomer 2]	> 2000 nM
N#Cc1ccc(CCNC(C(=O)Nc2ccc(O[C@@H]3CCOC3)cn2)c2ccccc2)cc1 (single isomer, unassigned) [4 Isomer 1]	91.4 nM
N#Cc1ccc(CCNC(C(=O)Nc2ccc(OC3COC3)cn2)c2ccccc2)cc1 (single isomer, unassigned) [6 Isomer 1]	39.9 nM
CC(=O)N1CC[C@H](Oc2ccc(NC(=O)C(NCCc3ccc(C#N)cc3)c3ccccc3)nc2)C1 (single isomer, unassigned) [13 Isomer 1]	> 2000 nM
CN1CC(Oc2ccc(NC(=O)C(NCCc3ccc(Cl)cc3)c3ccccc3)nc2)CCC1=O (single isomer, unassigned) [10 Isomer 2]	> 2000 nM
CC(=O)N1CCC[C@@H](Oc2ccc(NC(=O)C(NCCc3ccc(C#N)cc3)c3ccccc3)nc2)C1 (single isomer, unassigned) [16 Isomer 1]	164 nM
